This is an account of results in US12600709B2, “Nonpeptide somatostatin type 5 receptor agonists and uses thereof” (Crinetics Pharmaceuticals, Inc., priority 2019, dated 2026).

In assay [1] the target is T1, human somatostatin receptor subtype 5 (Homo sapiens, UniProt P35346).
T1 construct: expressed in transfected cells
Kind of assay: cAMP assay for SST5R (inhibition of cAMP in CHO-K1 cells). The class given is cell-based. The conditions noted are these: for EC50: inhibition of cAMP via human SST5 receptor, read-out: SST5 potency; for Fold selectivity for SST5 vs SST2: class symbols, SST5 receptor over SST2 receptor. An outline of the steps: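 CHO-K1 cells stably expressing human SSTR5 were treated 20 min at 37 °C with compounds plus 1.6 μM NKH477 in HBSS, 0.5 mM HEPES pH 7.4, 0.1% BSA, 0.2 mM IBMX. Lysate cAMP measured by HTRF against a standard curve; EC50 from cAMP-versus-concentration plots.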
On the technique in general: cAMP levels reflect the balance of adenylyl cyclase and phosphodiesterase activity.

Assay [2] deals with T2, human somatostatin receptor subtype 2 (Homo sapiens, UniProt P30874).
T2 construct: expressed in transfected cells
T2 sequence (P30874 whole entry): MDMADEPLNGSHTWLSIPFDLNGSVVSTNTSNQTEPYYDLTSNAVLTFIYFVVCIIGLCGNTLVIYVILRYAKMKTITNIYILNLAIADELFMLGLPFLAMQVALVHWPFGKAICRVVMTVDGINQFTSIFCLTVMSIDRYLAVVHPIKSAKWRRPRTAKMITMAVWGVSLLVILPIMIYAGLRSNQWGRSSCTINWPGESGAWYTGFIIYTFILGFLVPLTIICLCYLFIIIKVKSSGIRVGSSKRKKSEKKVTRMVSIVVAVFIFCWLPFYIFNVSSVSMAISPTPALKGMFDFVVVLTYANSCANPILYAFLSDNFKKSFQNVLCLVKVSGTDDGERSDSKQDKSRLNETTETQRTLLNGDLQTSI
Kind of assay: cAMP assay for SST2R (inhibition of cAMP in CHO-K1 cells). The class given is cell-based. The conditions noted are these: Table B; inhibition of cAMP via human SST2 receptor; read-out: SST2 potency. An outline of the steps: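 Agonism read as decrease in NKH477 (1.6 μM)-stimulated cAMP: compounds applied 20 min, 37° C, with 0.2 mM IBMX, to CHO-K1 stably expressing human SSTR2. cAMP quantified in lysates by time-resolved fluorescence (HTRF kit, 1-24 h RT), standard-curve regression, then EC50.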

Where two headings read alike, the source gives them in different places. Where only a bound is given, the exact number is not on record here.

T1 sequence (P35346 whole entry): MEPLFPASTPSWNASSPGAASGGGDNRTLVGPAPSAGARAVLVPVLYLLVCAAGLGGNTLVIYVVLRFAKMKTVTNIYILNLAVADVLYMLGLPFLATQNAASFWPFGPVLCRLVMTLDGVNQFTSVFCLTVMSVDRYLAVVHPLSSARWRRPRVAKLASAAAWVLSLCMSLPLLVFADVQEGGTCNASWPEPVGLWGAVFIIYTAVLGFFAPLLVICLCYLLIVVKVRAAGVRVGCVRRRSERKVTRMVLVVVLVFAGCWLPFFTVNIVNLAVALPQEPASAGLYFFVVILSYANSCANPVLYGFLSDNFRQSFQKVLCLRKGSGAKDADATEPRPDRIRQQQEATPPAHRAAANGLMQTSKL

Turning to `COc1ncc(C(=O)NC23CC(F)(C2)C3)c(N2CC[C@H](N)C2)c1-c1cc(F)cc(F)c1` [1-196, 4-[(3S)-3-aminopyrrolidin-1-yl]-5-(3,5-difluorophenyl)-N-{3-fluorobicyclo[1.1.1]pentan-1-yl}-6-methoxypyridine-3-carboxamide], the EC50 in assay [1] (Table A) is less than 10 nM; in assay [1] (Table B), less than 10 nM; in assay [2], greater than 1000 nM. In addition, the “Fold selectivity for SST5 vs SST2” value in assay [1] (Table B) was “+++ (+++=>500)”.

In the case of `COc1cc(C#N)cc(-c2c(C(F)(F)F)ncc(C(=O)N[C@@H](C)C3CC3)c2N2CC[C@](C)(N)C2)c1` [1-197, 4-[(3S)-3-amino-3-methylpyrrolidin-1-yl]-5-(3-cyano-5-methoxyphenyl)-N-[(1S)-1-cyclopropylethyl]-6-(trifluoromethyl)pyridine-3-carboxamide], the figures for the EC50 in assay [1] (Table A), in assay [1] (Table B) and in assay [2] were less than 10 nM, less than 10 nM and 100 to 1000 nM, respectively. The “Fold selectivity for SST5 vs SST2” value in assay [1] (Table B) was “+++ (+++=>500)”.

Take `C[C@H](NC(=O)c1cnc(C(F)(F)F)c(-c2cc(F)cc(Cl)c2)c1N1CC[C@H](N)C1)C1CC1` [1-198, 4-[(3S)-3-aminopyrrolidin-1-yl]-5-(3-chloro-5-fluorophenyl)-N-[(1S)-1-cyclopropylethyl]-6-(trifluoromethyl)pyridine-3-carboxamide]: the EC50 in assay [1] (Table A) is less than 10 nM; in assay [1] (Table B) it was less than 10 nM; in assay [2] it was 10 to 100 nM. Moreover, in assay [1] (Table B), the “Fold selectivity for SST5 vs SST2” value is reported as “++ (++=100 to 499)”.

Consider `C[C@H](NC(=O)c1cnc(C(F)(F)F)c(-c2cc(F)cc(F)c2)c1N1CC[C@H](N)C1)C1CC1` [1-199, 4-[(3S)-3-aminopyrrolidin-1-yl]-N-[(1S)-1-cyclopropylethyl]-5-(3,5-difluorophenyl)-6-(trifluoromethyl)pyridine-3-carboxamide], for which the EC50 in assay [1] (Table A) is less than 10 nM; in assay [1] (Table B), less than 10 nM; in assay [2], 100 to 1000 nM. The “Fold selectivity for SST5 vs SST2” value in assay [1] (Table B) was “+++ (+++=>500)”.

Regarding `CCOC(=O)COc1ncc(C(=O)NC2CCC(F)(F)CC2)c(N2CC[C@H](N)C2)c1-c1cc(F)cc(F)c1` [1-200, ethyl 2-({4-[(3S)-3-aminopyrrolidin-1-yl]-5-[(4,4-difluorocyclohexyl)carbamoyl]-3-(3,5-difluorophenyl)pyridin-2-yl}oxy)acetate], the EC50 in assay [1] (Table A) is less than 10 nM; in assay [1] (Table B), less than 10 nM; in assay [2], 100 to 1000 nM. Also, the “Fold selectivity for SST5 vs SST2” value in assay [1] (Table B) is listed as “+++ (+++=>500)”.

In the case of `CCOC(=O)CCOc1ncc(C(=O)NC2CCC(F)(F)CC2)c(N2CC[C@H](N)C2)c1-c1cc(F)cc(F)c1` [1-201, ethyl 3-({4-[(3S)-3-aminopyrrolidin-1-yl]-5-[(4,4-difluorocyclohexyl)carbamoyl]-3-(3,5-difluorophenyl)pyridin-2-yl}oxy)propanoate], the figures for the EC50 in assay [1] (Table A), in assay [1] (Table B) and in assay [2] were less than 10 nM, less than 10 nM and greater than 1000 nM, respectively. In addition, in assay [1] (Table B), the “Fold selectivity for SST5 vs SST2” value is recorded as “+++ (+++=>500)”.

For the compound `CCOC(=O)CCCOc1ncc(C(=O)NC2CCC(F)(F)CC2)c(N2CC[C@H](N)C2)c1-c1cc(F)cc(F)c1` [1-202, ethyl 4-({4-[(3S)-3-aminopyrrolidin-1-yl]-5-[(4,4-difluorocyclohexyl)carbamoyl]-3-(3,5-difluorophenyl)pyridin-2-yl}oxy)butanoate], the EC50 in assay [1] (Table A) was less than 10 nM; in assay [1] (Table B), less than 10 nM; in assay [2] it was greater than 1000 nM. Also, the “Fold selectivity for SST5 vs SST2” value in assay [1] (Table B) was “+++ (+++=>500)”.

In the case of `CCOc1cc(-c2c(C(F)(F)F)ncc(C(=O)N[C@@H](C)C3CC3)c2N2CC[C@](C)(N)C2)ccn1` [1-206, 4-[(3S)-3-amino-3-methylpyrrolidin-1-yl]-N-[(1S)-1-cyclopropylethyl]-2′-ethoxy-2-(trifluoromethyl)-[3,4′-bipyridine]-5-carboxamide], the EC50 in assay [1] (Table A) is less than 10 nM; in assay [1] (Table B), less than 10 nM; in assay [2], greater than 1000 nM. In addition, in assay [1] (Table B), the “Fold selectivity for SST5 vs SST2” value is reported as “+++ (+++=>500)”.

On to `COc1cc(-c2c(C(F)(F)F)ncc(C(=O)N[C@@H](C)C3CC3)c2N2CC[C@](C)(N)C2)ccn1` [1-208, 4-[(3S)-3-amino-3-methylpyrrolidin-1-yl]-N-[(1S)-1-cyclopropylethyl]-2′-methoxy-2-(trifluoromethyl)-[3,4′-bipyridine]-5-carboxamide], for which the EC50 is less than 10 nM in assay [1] (Table A), less than 10 nM in assay [1] (Table B) and 100 to 1000 nM in assay [2]. The “Fold selectivity for SST5 vs SST2” value in assay [1] (Table B) is listed as “+++ (+++=>500)”.

For the compound `C[C@]1(N)CCN(c2c(C(=O)NC3CCCCC3)cnc(C(F)(F)F)c2-c2cc(F)cc(F)c2)C1` [1-210, 4-[(3S)-3-amino-3-methylpyrrolidin-1-yl]-N-cyclohexyl-5-(3,5-difluorophenyl)-6-(trifluoromethyl)pyridine-3-carboxamide], the EC50 is less than 10 nM in assay [1] (Table A), less than 10 nM in assay [1] (Table B) and 10 to 100 nM in assay [2]. In assay [1] (Table B), the “Fold selectivity for SST5 vs SST2” value is given as “+++ (+++=>500)”.

Consider `C[C@H](NC(=O)c1cnc(C(F)(F)F)c(-c2cc(F)cc(F)c2)c1N1CC[C@H](N)C1)C(F)(F)F` [1-212, 4-[(3S)-3-aminopyrrolidin-1-yl]-5-(3,5-difluorophenyl)-6-(trifluoromethyl)-N-[(2S)-1,1,1-trifluoropropan-2-yl]pyridine-3-carboxamide], for which the EC50 is less than 10 nM in assay [1] (Table A), less than 10 nM in assay [1] (Table B) and 100 to 1000 nM in assay [2]. In addition, in assay [1] (Table B), the “Fold selectivity for SST5 vs SST2” value is “+++ (+++=>500)”.

As for `N[C@H]1CCN(c2c(C(=O)NC3CCCCC3)cnc(C(F)(F)F)c2-c2cc(F)cc(F)c2)C1` [1-213, 4-[(3S)-3-aminopyrrolidin-1-yl]-N-cyclohexyl-5-(3,5-difluorophenyl)-6-(trifluoromethyl)pyridine-3-carboxamide], the EC50 in assay [1] (Table A) was less than 10 nM; in assay [1] (Table B), less than 10 nM; in assay [2] it was 100 to 1000 nM. In addition, the “Fold selectivity for SST5 vs SST2” value in assay [1] (Table B) is recorded as “+++ (+++=>500)”.

`N[C@H]1CCN(c2c(C(=O)NC3CCC(F)(F)CC3)cnc(C(F)(F)F)c2-c2cc(F)cc(F)c2)C1` [1-214, 4-[(3S)-3-aminopyrrolidin-1-yl]-N-(4,4-difluorocyclohexyl)-5-(3,5-difluorophenyl)-6-(trifluoromethyl)pyridine-3-carboxamide]: the EC50 in assay [1] (Table A) was less than 10 nM; in assay [1] (Table B) it was less than 10 nM; in assay [2], greater than 1000 nM. For the same compound, in assay [1] (Table B), the “Fold selectivity for SST5 vs SST2” value is reported as “+++ (+++=>500)”.

On to `C[C@H](NC(=O)c1cnc(C(F)(F)F)c(-c2cc(Cl)cc(Cl)c2)c1N1CC[C@H](N)C1)C1CC1` [1-215, 4-[(3S)-3-aminopyrrolidin-1-yl]-N-[(1S)-1-cyclopropylethyl]-5-(3,5-dichlorophenyl)-6-(trifluoromethyl)pyridine-3-carboxamide], for which the EC50 in assay [1] (Table A) was less than 10 nM; in assay [1] (Table B), less than 10 nM; in assay [2], 100 to 1000 nM. In assay [1] (Table B), the “Fold selectivity for SST5 vs SST2” value is “+++ (+++=>500)”.

For `N[C@H]1CCN(c2c(C(=O)NC34CC(F)(C3)C4)cnc(C(F)(F)F)c2-c2cc(F)cc(F)c2)C1` [1-216, 4-[(3S)-3-aminopyrrolidin-1-yl]-5-(3,5-difluorophenyl)-N-{3-fluorobicyclo[1.1.1]pentan-1-yl}-6-(trifluoromethyl)pyridine-3-carboxamide], the EC50 in assay [1] (Table A) is less than 10 nM; in assay [1] (Table B), less than 10 nM; in assay [2], greater than 1000 nM. The “Fold selectivity for SST5 vs SST2” value in assay [1] (Table B) was “+++ (+++=>500)”.

For the compound `C[C@]1(N)CCN(c2c(C(=O)NC34CC(F)(C3)C4)cnc(C(F)(F)F)c2-c2cc(F)cc(F)c2)C1` [1-217, 4-[(3S)-3-amino-3-methylpyrrolidin-1-yl]-5-(3,5-difluorophenyl)-N-{3-fluorobicyclo[1.1.1]pentan-1-yl}-6-(trifluoromethyl)pyridine-3-carboxamide], the EC50 in assay [1] (Table A) was less than 10 nM; in assay [1] (Table B), less than 10 nM; in assay [2], 100 to 1000 nM. Also, the “Fold selectivity for SST5 vs SST2” value in assay [1] (Table B) was “+++ (+++=>500)”.

For the compound `CC(NC(=O)c1cnc(C#N)c(-c2cc(F)cc(F)c2)c1N1CC[C@H](N)C1)C(F)(F)F` (stereo partly drawn) [1-226, 4-[(3S)-3-aminopyrrolidin-1-yl]-6-cyano-5-(3,5-difluorophenyl)-N-(1,1,1-trifluoropropan-2-yl)pyridine-3-carboxamide], the EC50 is less than 10 nM in assay [1] (Table A), less than 10 nM in assay [1] (Table B) and 100 to 1000 nM in assay [2]. Further, the “Fold selectivity for SST5 vs SST2” value in assay [1] (Table B) is given as “++ (++=100 to 499)”.

For the compound `COc1ncc(C(=O)N[C@@H](C)C(F)(F)F)c(N2CC[C@](C)(N)C2)c1-c1cc(F)cc(Cl)c1` [1-228, 4-[(3S)-3-amino-3-methylpyrrolidin-1-yl]-5-(3-chloro-5-fluorophenyl)-6-methoxy-N-[(2S)-1,1,1-trifluoropropan-2-yl]pyridine-3-carboxamide], the EC50 is less than 10 nM in assay [1] (Table A), less than 10 nM in assay [1] (Table B) and 10 to 100 nM in assay [2]. For the same compound, in assay [1] (Table B), the “Fold selectivity for SST5 vs SST2” value is given as “+++ (+++=>500)”.

In the case of `COc1ncc(C(=O)N[C@@H](C)C2CC2)c(N2CC[C@](C)(N)C2)c1-c1cc(F)cc(Cl)c1` [1-229, 4-[(3S)-3-amino-3-methylpyrrolidin-1-yl]-5-(3-chloro-5-fluorophenyl)-N-[(1S)-1-cyclopropylethyl]-6-methoxypyridine-3-carboxamide], the EC50 in assay [1] (Table A) is less than 10 nM; in assay [1] (Table B) it was less than 10 nM; in assay [2] it was 10 to 100 nM. The “Fold selectivity for SST5 vs SST2” value in assay [1] (Table B) is “+++ (+++=>500)”.
